Tests used:
[1] = In vitro release of triclosan from films; type: physicochemical; conditions: in vitro testing
[2] = test system: S. epidermidis ATCC 12228; assay: Zone of inhibition (ZOI) on Mueller Hinton agar; type: cell-based; conditions: 6 mm punches or filter disk, 36° C., 16-18 hours
Protocol: (§1) Testing was performed with 4 different species of bacteria. […] S. aureus ATCC 25923; S. epidermidis ATCC 12228; Pseudomonas aeruginosa ATCC 10145; Enterobacter [NT] 29941 Glass culture tubes (VWR #:89001-480); Blank Disks, 6.35 mm diameter (VWR#: 90002-114); 6 mm Disposable Biopsy Punches (VWR#: 21909-144); Mueller Hinton agar dishes (VWR #: 100219-188); 0.5 McFarland turbidity standard (VWR #: 29447-318); dPBS (VWR #: 12001-664); Cotton swabs; Incubator; Thermometer; Bacterial hood […] Swirl the swab in this tube and when removing the swab, press it into the side of the tube above the liquid. • Inoculate Mueller-Hinton agar plates by streaking once down the middle of the plate. […] After streaking the entire plate, streak the swab around the rim of the plate. • Place filter disks/punches onto the dish. • Place in the 36° C. incubator within 15 minutes inoculating dish. • Incubate 16-18 hours. • Measure ZOI in millimeters using slide caliper (ZOI was measured a linear distance measured through the center point of the disk). FIG. 28 illustrates the minimum effective concentration and measured ZOI.

[3] = test system: Pseudomonas aeruginosa ATCC 10145; assay: Zone of inhibition (ZOI) on Mueller Hinton agar; type: cell-based; conditions: 6 mm punches or filter disk, 36° C., 16-18 hours
Protocol: as §1

S. aureus ATCC 25923 = assay: Zone of inhibition (ZOI) on Mueller Hinton agar; type: cell-based; conditions: 6 mm punches or filter disk, 36° C., 16-18 hours
Protocol: as §1

[4] = test system: Enterobacter cloacae ATCC 29941; assay: Zone of inhibition (ZOI) on Mueller Hinton agar; type: cell-based; conditions: 6 mm punches or filter disk, 36° C., 16-18 hours
Protocol: as §1

[5] = Implantation of sleeve-covered metal plates in sheep; conditions: within 24 hours after insertion, sleeves
Protocol: In one exemplary embodiment, implants were tested by implantation in sheep. The implants were metal plates with tubular, thin (0.05-0.08 mm), transparent polymer sleeves carefully slipped over the metal plates just before they were surgically inserted and attached to the bone. […] The sleeves were comprised of a synthetic copolyester (glycolide, caprolactone, trimethylenecarbonate, lactide) with aperture holes of 1.5 mm diameter equally spaced throughout.

## Oc1cc(Cl)ccc1Oc1ccc(Cl)cc1Cl [triclosan, 2,4,4′-trichloro-2′-hydroxydiphenyl ether]
[1]
  initial burst release: minimal
  period of release from films: slowly over a to 3 weeks period

## Gentamicin [120 ug gentamicin]
[2]; 0.1-5% films data set
  Avg. ZOI (mm) S. epidermidis: 34.9 mm
[2]; 13% film tested separately
  Avg. ZOI (mm) S. epidermidis: 31.37 mm
[3]; 0.1-5% films data set
  Avg. ZOI (mm) P. aeruginosa: 26.7 mm
[3]; 13% film tested separately
  Avg. ZOI (mm) P. aeruginosa: 24.90 mm
S. aureus ATCC 25923; 0.1-5% films data set
  Avg. ZOI (mm) S. aureus: 30.5 mm
S. aureus ATCC 25923; 13% film tested separately
  Avg. ZOI (mm) S. aureus: 28.73 mm
[4]; 0.1-5% films data set
  Avg. ZOI (mm) E. cloacae: 22.4 mm
[4]; 13% film tested separately
  Avg. ZOI (mm) E. cloacae: 25.27 mm

## gentamicin
[5]
  gentamicin released into the adjacent tissue: Approximately 50%
